# Test results reported in patent publication US12473250B2, “Molecular design of new antibiotics and antibiotic adjuvants against MCR strains” (priority 2019, dated 2025).
# How the values were obtained:
# various pathogens = test: organism not typed; type: cell-based
# In short: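 Broth microdilution MIC per CLSI: each agent alone and LC compound plus antibiotic (e.g. colistin) combined in equal amounts, serially diluted 2-fold at fixed synergy concentration.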
# [1] = tested on: KLPN multi-drug resistant strains; test: MIC against multi-drug resistant strains (Table 5); type: cell-based, Klebsiella pneumonia; conditions: alone
# Experimental: (§1) MIC experiments of the antimicrobial agents were determined by a modified broth microdilution method in accordance with the Clinical and Laboratory Standards Institute (CLSI) guidelines using 96 well culture plates. In brief, serial dilutions of all plates were prepared at different concentrations (μg). The inoculum suspension was prepared by adding isolated colonies from a 18-20 hours on TSA plate into phosphate buffer (0.31 mM, pH 7.2) or in water for injection (BBraun) and adjusting the suspension to a turbidity equivalent to 0.5 McFarland Standard. Each well contained a final bacterial concentration of approximately 5×10^5 colony forming units (CFU)/mL. The plate was covered and incubated at 35° C. for 24 hours. […] For the microdilution plates, turbidity in wells can be measured at OD600 using TECAN infinite M200Pro. MIC was determined as […] concentration that gives a 99 percent inhibition.
# [2] = tested on: ENT CLOACAE multi-drug resistant strains; test: MIC against multi-drug resistant strains (Table 5); type: cell-based, E. cloacae; conditions: alone
# Experimental: as §1
substance,measurement,setting,value
Colistin,FOLD CHANGES [Absorbance (abs; OD 600 nm)] No Treatment [Bacteria alone]: Colistin 0.5 μg,various pathogens; E. Coli DB 16027R,1.23
same,FOLD CHANGES [Absorbance (abs; OD 600 nm)] No Treatment [Bacteria alone]: MIC Colistin,various pathogens; E. Coli DB 16027R,14.89
same,MIC,various pathogens; E. Coli DB 16027R,0.78 µg/mL
same,FOLD CHANGES [Absorbance (abs; OD 600 nm)] No Treatment [Bacteria alone]: Colistin 0.5 μg,various pathogens; KLPN ATCC 4352,1.81
same,FOLD CHANGES [Absorbance (abs; OD 600 nm)] No Treatment [Bacteria alone]: MIC Colistin,various pathogens; KLPN ATCC 4352,3.54
same,MIC,various pathogens; KLPN ATCC 4352,0.78 µg/mL
same,FOLD CHANGES [Absorbance (abs; OD 600 nm)] No Treatment [Bacteria alone]: Colistin 0.5 μg,various pathogens; KLPN ATCC 10031,1.25
same,FOLD CHANGES [Absorbance (abs; OD 600 nm)] No Treatment [Bacteria alone]: MIC Colistin,various pathogens; KLPN ATCC 10031,10.11
same,MIC,various pathogens; KLPN ATCC 10031,1.56 µg/mL
same,FOLD CHANGES [Absorbance (abs; OD 600 nm)] No Treatment [Bacteria alone]: Colistin 0.5 μg,various pathogens; KLPN ATCC 27736,1.21
same,FOLD CHANGES [Absorbance (abs; OD 600 nm)] No Treatment [Bacteria alone]: MIC Colistin,various pathogens; KLPN ATCC 27736,9.67
same,MIC,various pathogens; KLPN ATCC 27736,0.78 µg/mL
same,FOLD CHANGES [Absorbance (abs; OD 600 nm)] No Treatment [Bacteria alone]: Colistin 0.5 μg,various pathogens; KLPN ATCC 35657,1.57
same,FOLD CHANGES [Absorbance (abs; OD 600 nm)] No Treatment [Bacteria alone]: MIC Colistin,various pathogens; KLPN ATCC 35657,13.49
same,MIC,various pathogens; KLPN ATCC 35657,1.56 µg/mL
same,FOLD CHANGES [Absorbance (abs; OD 600 nm)] No Treatment [Bacteria alone]: Colistin 0.5 μg,various pathogens; KLPN ATCC 700603,1.11
same,FOLD CHANGES [Absorbance (abs; OD 600 nm)] No Treatment [Bacteria alone]: MIC Colistin,various pathogens; KLPN ATCC 700603,9.64
same,MIC,various pathogens; KLPN ATCC 700603,1.56 µg/mL
same,FOLD CHANGES [Absorbance (abs; OD 600 nm)] No Treatment [Bacteria alone]: Colistin 0.5 μg,various pathogens; KLPN CRE 7955,1.64
same,FOLD CHANGES [Absorbance (abs; OD 600 nm)] No Treatment [Bacteria alone]: MIC Colistin,various pathogens; KLPN CRE 7955,10.28
same,MIC,various pathogens; KLPN CRE 7955,1.56 µg/mL
same,FOLD CHANGES [Absorbance (abs; OD 600 nm)] No Treatment [Bacteria alone]: Colistin 0.5 μg,various pathogens; KLPN CRE 15588,2.50
same,FOLD CHANGES [Absorbance (abs; OD 600 nm)] No Treatment [Bacteria alone]: MIC Colistin,various pathogens; KLPN CRE 15588,7.39
same,MIC,various pathogens; KLPN CRE 15588,0.78 µg/mL
same,FOLD CHANGES [Absorbance (abs; OD 600 nm)] No Treatment [Bacteria alone]: Colistin 0.5 μg,various pathogens; KLPN CRE 16260,1.06
same,MIC,various pathogens; KLPN CRE 16260,>50 µg/mL
same,FOLD CHANGES [Absorbance (abs; OD 600 nm)] No Treatment [Bacteria alone]: Colistin 0.5 μg,various pathogens; KLPN CRE 27025,5.24
same,FOLD CHANGES [Absorbance (abs; OD 600 nm)] No Treatment [Bacteria alone]: MIC Colistin,various pathogens; KLPN CRE 27025,11.84
same,MIC,various pathogens; KLPN CRE 27025,0.78 µg/mL
same,FOLD CHANGES [Absorbance (abs; OD 600 nm)] No Treatment [Bacteria alone]: Colistin 0.5 μg,various pathogens; KLPN CRE 55301,1.09
same,FOLD CHANGES [Absorbance (abs; OD 600 nm)] No Treatment [Bacteria alone]: MIC Colistin,various pathogens; KLPN CRE 55301,9.00
same,MIC,various pathogens; KLPN CRE 55301,0.78 µg/mL
same,FOLD CHANGES [Absorbance (abs; OD 600 nm)] No Treatment [Bacteria alone]: Colistin 0.5 μg,various pathogens; PAE ATCC 9027,0.98
same,FOLD CHANGES [Absorbance (abs; OD 600 nm)] No Treatment [Bacteria alone]: MIC Colistin,various pathogens; PAE ATCC 9027,8.80
same,MIC,various pathogens; PAE ATCC 9027,1.56 µg/mL
same,FOLD CHANGES [Absorbance (abs; OD 600 nm)] No Treatment [Bacteria alone]: Colistin 0.5 μg,various pathogens; PAE ATCC 9721,1.01
same,FOLD CHANGES [Absorbance (abs; OD 600 nm)] No Treatment [Bacteria alone]: MIC Colistin,various pathogens; PAE ATCC 9721,5.80
same,MIC,various pathogens; PAE ATCC 9721,1.56 µg/mL
same,FOLD CHANGES [Absorbance (abs; OD 600 nm)] No Treatment [Bacteria alone]: Colistin 0.5 μg,various pathogens; PAE ATCC 15442,1.03
same,FOLD CHANGES [Absorbance (abs; OD 600 nm)] No Treatment [Bacteria alone]: MIC Colistin,various pathogens; PAE ATCC 15442,14.00
same,MIC,various pathogens; PAE ATCC 15442,1.56 µg/mL
same,FOLD CHANGES [Absorbance (abs; OD 600 nm)] No Treatment [Bacteria alone]: Colistin 0.5 μg,various pathogens; PAE ATCC 27853,0.96
same,FOLD CHANGES [Absorbance (abs; OD 600 nm)] No Treatment [Bacteria alone]: MIC Colistin,various pathogens; PAE ATCC 27853,8.35
same,MIC,various pathogens; PAE ATCC 27853,0.78 µg/mL
same,FOLD CHANGES [Absorbance (abs; OD 600 nm)] No Treatment [Bacteria alone]: Colistin 0.5 μg,various pathogens; PAE ATCC BAA-1744,1.11
same,FOLD CHANGES [Absorbance (abs; OD 600 nm)] No Treatment [Bacteria alone]: MIC Colistin,various pathogens; PAE ATCC BAA-1744,6.81
same,MIC,various pathogens; PAE ATCC BAA-1744,1.56 µg/mL
same,FOLD CHANGES [Absorbance (abs; OD 600 nm)] No Treatment [Bacteria alone]: Colistin 0.5 μg,various pathogens; PAE DM 4150,1.02
same,FOLD CHANGES [Absorbance (abs; OD 600 nm)] No Treatment [Bacteria alone]: MIC Colistin,various pathogens; PAE DM 4150,10.34
same,MIC,various pathogens; PAE DM 4150,3.125 µg/mL
same,FOLD CHANGES [Absorbance (abs; OD 600 nm)] No Treatment [Bacteria alone]: Colistin 0.5 μg,various pathogens; PAE DM 23155,1.30
same,FOLD CHANGES [Absorbance (abs; OD 600 nm)] No Treatment [Bacteria alone]: MIC Colistin,various pathogens; PAE DM 23155,7.00
same,MIC,various pathogens; PAE DM 23155,1.56 µg/mL
same,FOLD CHANGES [Absorbance (abs; OD 600 nm)] No Treatment [Bacteria alone]: Colistin 0.5 μg,various pathogens; PAE DM 23257,1.02
same,FOLD CHANGES [Absorbance (abs; OD 600 nm)] No Treatment [Bacteria alone]: MIC Colistin,various pathogens; PAE DM 23257,7.71
same,MIC,various pathogens; PAE DM 23257,1.56 µg/mL
same,FOLD CHANGES [Absorbance (abs; OD 600 nm)] No Treatment [Bacteria alone]: Colistin 0.5 μg,various pathogens; PAE DM 23376,0.93
same,FOLD CHANGES [Absorbance (abs; OD 600 nm)] No Treatment [Bacteria alone]: MIC Colistin,various pathogens; PAE DM 23376,8.00
same,MIC,various pathogens; PAE DM 23376,1.56 µg/mL
same,FOLD CHANGES [Absorbance (abs; OD 600 nm)] No Treatment [Bacteria alone]: Colistin 0.5 μg,various pathogens; PAE DR 4877,1.30
same,FOLD CHANGES [Absorbance (abs; OD 600 nm)] No Treatment [Bacteria alone]: MIC Colistin,various pathogens; PAE DR 4877,12.00
same,MIC,various pathogens; PAE DR 4877,1.56 µg/mL
same,FOLD CHANGES [Absorbance (abs; OD 600 nm)] No Treatment [Bacteria alone]: Colistin 0.5 μg,various pathogens; PAE DR 5790,1.06
same,FOLD CHANGES [Absorbance (abs; OD 600 nm)] No Treatment [Bacteria alone]: MIC Colistin,various pathogens; PAE DR 5790,10.25
same,MIC,various pathogens; PAE DR 5790,0.78 µg/mL
same,FOLD CHANGES [Absorbance (abs; OD 600 nm)] No Treatment [Bacteria alone]: Colistin 0.5 μg,various pathogens; PAE DU 14476,0.90
same,FOLD CHANGES [Absorbance (abs; OD 600 nm)] No Treatment [Bacteria alone]: MIC Colistin,various pathogens; PAE DU 14476,7.21
same,MIC,various pathogens; PAE DU 14476,1.56 µg/mL
same,MIC,[1]; strain KLPN 8852,>50 µg/mL
same,MIC,[1]; strain KLPN 15588,1.56 µg/mL
same,MIC,[1]; strain KLPN 24076,1.56 µg/mL
same,MIC,[1]; strain KLPN 27025,1.56 µg/mL
same,MIC,[2]; strain ENT CLOACAE 6780,1.56 µg/mL
same,MIC,[2]; strain ENT CLOACAE 21489,0.78 µg/mL
same,MIC,[2]; strain ENT CLOACAE 30063,>50 µg/mL
same,MIC,[2]; strain ENT CLOACAE 44095,>50 µg/mL
